US10391095B2, “DNA-PK inhibitors” (Vertex Pharmaceuticals Incorporated, priority 2012, dated 2019)

Target: DNA-PK (Homo sapiens, UniProt P78527)
Experiment: DNA-PK inhibition assay (radiometric, 33P-ATP)
Type: biochemical
Conditions: 100 μM ATP, competitive tight-binding fit
Procedure: Compounds were screened for their ability to inhibit DNA-PK kinase using a standard radiometric assay. Briefly, in this kinase assay the transfer of the terminal ^33P-phosphate in ^33P-ATP to a peptide substrate is interrogated. The assay was carried out in 384-well plates to a final volume of 50 μL per well containing approximately 6 nM DNA-PK, 50 mM HEPES (pH 7.5), 10 mM MgCl2, 25 mM NaCl, 0.01% BSA, 1 mM DTT, 10 μg/mL sheared double-stranded DNA (obtained from Sigma), 0.8 mg/mL DNA-PK peptide ([…] obtained from American Peptide), and 100 μM ATP. Accordingly, compounds of the invention were dissolved in DMSO to make 10 mM initial stock solutions. Serial dilutions in DMSO were then made to obtain the final solutions for the assay. A 0.75 μL aliquot of DMSO or inhibitor in DMSO was added to each well, followed by the addition of ATP substrate solution containing ^33P-ATP (obtained from Perkin Elmer). The reaction was started by the addition of DNA-PK, peptide and ds-DNA. After 45 min, the reaction was quenched with 25 μL of 5% phosphoric acid. The reaction mixture was transferred to MultiScreen HTS 384-well PH plates (obtained from Millipore), allowed to bind for one hour, and washed three times with 1% phosphoric acid. Following the addition of 50 μL of Ultima Gold™ high efficiency scintillant (obtained from Perkin Elmer), the samples were counted in a Packard TopCount NXT Microplate Scintillation and Luminescence Counter (Packard BioScience). The Ki values were calculated using Microsoft Excel Solver macros to fit the data to the kinetic model for competitive tight-binding inhibition.

Ki, < 30 nM:
CNC(=O)c1ccc([C@H](C)CNc2cc(-c3ccc4ncccc4c3)ncn2)c(OC)c1 [Compound 454], CNC(=O)c1ccnc2c([C@H](C)CNc3cc(-c4cnc5c(c4)OCCO5)ncn3)ccc(F)c12 [Compound 936], CCOc1cc(F)ccc1C(C)CNc1cc(-c2ccc(C)nc2)ncn1 (stereo not shown) [Compound 100], CNC(=O)c1ccnc2c([C@H](C)CNc3cc(-c4ccc(CN5CCN(C)CC5)nc4)ncn3)cccc12 [Compound 670], CNC(=O)c1ccc([C@H](C)CNc2cc(-c3ccc(NCC(F)F)nc3)ncn2)c(OC)c1 [Compound 390], Cc1ccc2cc(-c3cc(NC[C@@H](C)c4ccnc5c4OCCO5)ncn3)ccc2n1 [Compound 555], C[C@H](CNc1cc(-c2cnc3c(ccn3C3COC3)c2)ncn1)c1ccnc2c1OCCO2 [Compound 536], CNC(=O)c1ccc([C@H](C)CNc2cc(-c3ccc(N4CCC4)nc3)ncn2)c(OC)c1 [Compound 395], Cc1ccc(-c2cc(NCC(C)c3ccnc4c3OCC4)ncn2)cn1 (stereo not shown) [Compound 289], CNC(=O)c1ccc(C(C)CNc2cc(-c3cnc4c(cnn4C)c3)ncn2)c(OC)c1 (stereo not shown) [Compound 188], CNC(=O)c1ccnc2c([C@H](C)CNc3cc(-c4ccc(C#N)cc4)ncn3)cccc12 [Compound 683], CCN(C)c1ccc(-c2cc(NC[C@@H](C)c3ccc(C(=O)NC)cc3OC)ncn2)cn1 [Compound 362], CNC(=O)c1ccc(C(C)CNc2cc(-c3ccc4c(c3)c(C)nn4CCO)ncn2)c(OC)c1 (stereo not shown) [Compound 272], CC(CNc1cc(-c2cnc3c(cnn3CCO)c2)ncn1)c1cccc2scnc12 (stereo not shown) [Compound 402], CNC(=O)c1ccnc2c([C@H](C)CNc3cc(-c4ccc(N5CCN(CC(F)F)CC5)nc4)ncn3)cccc12 [Compound 756], Cc1ccc(-c2cc(NCCc3cccc4c3OCC4)ncn2)cn1 [Compound 60], CCOc1ncc(-c2cc(NC[C@@H](C)c3cccc4c(C(=O)NC)ccnc34)ncn2)cc1C [Compound 950], CNC(=O)c1ccnc2c([C@H](C)CNc3cc(-c4cnc(OC)c(F)c4)ncn3)cccc12 [Compound 881], CNC(=O)c1ccnc2c([C@H](C)CNc3cc(-c4ccc(N5CCN(C(C)=O)CC5)nc4)ncn3)cccc12 [Compound 614], CNC(=O)c1ccnc2c([C@H](C)CNc3cc(-c4cnc(C5CC5)nc4)ncn3)cccc12 [Compound 790], CNC(=O)c1c(F)cnc2c([C@H](C)CNc3cc(-c4cnc(OC)c(OC)c4)ncn3)cccc12 [Compound 898], CNC(=O)c1ccnc2c([C@H](C)CNc3cc(-c4ccc(C#N)nc4)ncn3)ccc(F)c12 [Compound 909], CNC(=O)c1ccnc2c([C@H](C)CNc3cc(-c4cnc(C)nc4)ncn3)ccc(F)c12 [Compound 622], COc1ccccc1CCNc1cc(-c2ccc3ncccc3c2)ncn1 [Compound 1], CNC(=O)c1ccc([C@H](C)CNc2cc(-c3ccc4scnc4c3)ncn2)c(OC)c1 [Compound 316], COc1cc(C(=O)NC2CC2)ccc1C(C)CNc1cc(-c2ccc(C)nc2)ncn1 (stereo not shown) [Compound 158], CNC(=O)c1ccnc2c([C@H](C)CNc3cc(-c4cncc(CO)c4)ncn3)cccc12 [Compound 956], Cc1ccc(-c2cc(NCC(C)c3cncc4c3OCCC4)ncn2)cn1 (stereo not shown) [Compound 451], CNC(=O)c1ccnc2c([C@H](C)CNc3cc(-c4ccc(OCC5CC5)nc4)ncn3)cccc12 [Compound 891], CNC(=O)c1ccnc2c([C@H](C)CNc3cc(-c4cnc(C(C)C)nc4)ncn3)ccc(F)c12 [Compound 854], CNC(=O)c1ccnc2c([C@H](C)CNc3cc(-c4ccc(C5CCC5)nc4)ncn3)ccc(F)c12 [Compound 850]
